{"source": "patent US20050142231A1", "about": "“Pharmaceutical activity and manufacturing method of the five-plant compound hypolipemic products” (priority 2003, published 2005)", "tested_on": "lecithin cholesterol acyltransferase (LCAT)", "experiment": "Effect upon activity of lecithin cholesterol acyltransferase in rats suffering from hyperlipemia", "type": "in vivo, rat", "excerpt": "The original lecithin and cholesterol in the serum were used as substrates, which were kept warm for some time. Because of the effect of lecithin cholesterol acyltransferase (LCAT), cholesterolester (CE) in serum was increased, but free cholesterol (FC) decreased. Then cholesterol was oxidized by cholesterol oxidase and hydrogen peroxide was produced. The latter reacted with […] and phenol under the action of horseradish peroxidase to produce red quinone imide, which can be used for colorimetric analysis to determine the content of FC. The decrease in FC, ie, the esterification of cholesterol can indicate the activity of LCAT in magnitude. […]\n(2) Two portions of 0.1 ml fresh serum were taken from each animal of each group and were preheated in water bath at 37° C. for five minutes, to one portion of which 3 ml cholesterol enzyme-linked reagent application solution was added (30 ml enzyme reaction solution for 1 ml cholesterol enzyme-linked reagent), mixed thoroughly and heated in water bath at 37° C. for 15 minutes while blank control tube and standard tube (0.05 ml standard cholesterol absolute alcohol solution) were made. […] OD was read and FC content was calculated in terms of Beer's law, which was the serum FC content before reaction. […] Then FC content was determined as above, expressed as OD, which was the serum FC content after reaction. […]"}
{"smiles": "CCOC(=O)C(C)(C)Oc1ccc(Cl)cc1", "note": "[Astromid-s]", "values": [{"measurement": "Effect on activity of LCAT (in words)", "setting": "0.13 g/kg", "value": "not noticeable"}, {"measurement": "LCAT activity (TC esterification nmol/ml/h)", "setting": "hyperlipemia rat serum, dose 0.13 g/kg for seven days, x ± SD", "value": "536 ± 277", "unit": "nmol/mL/h"}]}
